Key:
[1] = system: Bmi1-luciferase reporter cell line; assay: Bmi1-luciferase reporter assay (screen for inhibitors of BAF-mediated transcriptional repression); format: cell-based, mouse; conditions: grading in words
Method: Low passage mESCs from 129 mice (20 million, p10) were electroporated with 40 μg of a linearized construct consisting of 2 kb homology upstream of the Bmi1 locus, firefly luciferase at exon 1 of Bmi1 followed by loxP neo and a 6 kb 3′ homology arm with thymidine kinase outside the homology arms. The cells were plated on 10 gelatin treated plates (60 mm) of irradiated neo resistant MEFs and selected with G418 and ganciclovir for 5 days. 384 colonies were selected, trypsinized and replated in gelatin treated 24-well plates for expansion. The cells were split and DNA was isolated for digestions with EcoRI or BamHI. We confirmed the successful homologous recombination in 7 out 384 colonies using Southern blot analysis at both the 5′ (EcoRI) and 3′ (BamHI) end (see Table S2 of Marian et al., “Small Molecule Targeting of Specific BAF (mSWI/SNF) Complexes for HIV Latency Reversal,” Cell Chem. Biol. (Dec. 20, 2018) 25: 1443-1445). We deleted the neomycin cassette using transfected Cre recombinase and confirmed the excision at all clones using a second round of Southern blot analysis at the 3′ end (BamHI).
3. Compound Treatment: 10,000 cells in 30 μL ESC media were plated in white 384 well CellBind plates. The cells were cultured in a 37° C., 5% CO2 incubator for 24 h and 100 nL/well of 0.75 mM of positive control (Pubchem SID: 85814977) or 100 nL/well of 3.75 mM compound library (primary screen) was added via pin transfer into plates. There was no effect on assay readout at DMSO concentrations up to 0.5%. The cells were cultured in a 37° C., 5% CO2 incubator for 24 h for luciferase reporter assay and 18 h for qRT-PCR assay. 4. Luciferase assay: (PubChem AID 602393 primary, PubChem AID 651717 confirmatory.) The assay plates were removed from the incubator and equilibrates for 10 minutes to room temperature. Promega SteadyGlo® solution (10 μL/well) was added to each well of the assay plates. The assay plates were mixed at 1000 rpm for 15 seconds and then incubated for 10 minutes at room temperature. The luciferase levels were read on a Perkin Elmer Envision in Ultra Sensitive Luminescence mode. Signals remained stable up to 2 hours. 5. EqRT-PCR secondary screen (PubChem AID 743180, 743177, 743176) The qRTPCR screen was performed as published^54. In brief, 5,000 ES cells were plated on gelatin-coated 384-well tissue culture plates and cultured in a 37C, 5% CO2 incubator. 24 h later, hit compounds in 100 nL DMSO were treated at eight different doses. 18 h after compound treatment cells were washed two times with 100 μL PBS and all excess PBS was removed by centrifuging the plates upside down at 1000 rpm. The Ambion® Cells-to-Ct kit was used to generate cDNA. In brief, the cells were lysed in the plate in 10 μL lysis buffer containing DNase for 10 minutes and quenched with 1 μL lysis stop buffer. The lysate (2 μL) was added to 5 μL RT reaction buffer (2×), 2.5 μL nuclease-free water and 0.5 μL Reverse transcriptase (20×) and incubated at 37° C. for 60 minutes and 95° C. for 1 minute to generate 10 μL of cDNA. cDNA (1 μL) was used in each 5 μL qPCR reaction with Roche master mix and TaqMan probes (Applied Biosystems) for Bmi1-FAM (Mm00776122_gH), Ring1a-FAM (Mm01278940_m1/4331182), or Fgf4-FAM (Mm00438916_g1/4351372) alongside actin-VIC (4352341E) for a loading control. The qPCR was run accordingly: 95° C. for 10 minutes Then 55 cycles of: 95° C. for 10 seconds followed by 60° C. for 30 seconds. The fold increase in transcription was calculated using the ΔΔCT method^84. 6. Viability Assays (PubChem AID: 743188, 743189, 743190, 1053139, 1053140, 1053141)

[2] = system: latent HIV-1 in ex vivo infected human CD4+ T cells; assay: Ex vivo HIV latency model (Lassen), luciferase readout; format: cell-based
Method: [drawing 27] i. BRD-K25923209: To Macrocycle 2141-039b (0.804 g, 1.550 mmol) dissolved in MeOH (Volume: 15.50 ml) was added tin(II) chloride dihydrate (3.50 g, 15.50 mmol). […] Upon completion, the reaction mixture was concentrated and the resulting residue was dissolved in EtOAc and washed with 2 M aq. KOH (2×). The combined aqueous layers were washed with EtOAc (4×). The resulting organic layers were washed with brine, saturated aqueous NaHCO3, water, and brine, dried over MgSO4, filtered, and concentrated. […] BRD-K80443127: A screwtop vial was charged with aniline (BRD-K25923209) (43.3 mg, 0.089 mmol) and CH2Cl2 (Volume: 886 μl, Density: 1.325 g/ml). Isopropyl chloroformate (115 μl, 0.115 mmol) and DIEA (46.4 μl, 0.266 mmol) were added dropwise and reaction stirred under ambient conditions for 1 h. […] BRD-K04244835: A 2.5 mL microwave vial was charged with aniline (BRD-K25923209) (40 mg, 0.082 mmol) and EtOH (Volume: 819 μl, Density: 0.81 g/ml). Squaramide (CRE-III-001) (20.75 mg, 0.098 mmol), DIEA (42.8 μl, 0.246 mmol), and DMAP (2.000 mg, 0.016 mmol) were added in sequence and the vial was sealed. […] 9. […] 10. […] 11.

## CO[C@H]1CN(C)C(=O)c2cc(NC(=O)OC(C)C)ccc2OC[C@H](C)N(Cc2ccc(-c3ccccn3)cc2)C[C@@H]1C [BRD-K80443127]
[1]
  activity in the Bmi1 luciferase reporter assays: high activity
[2]; 24 h treatment
  latency reversal (transcription of latent HIV-1): efficiently triggered HIV transcription
[2]; compared to single agent treatments
  latency reversal in combination with other latency reversal agents: potentiated the effect of other latency reversal agents

Reference: patent US11980613B2, “Methods for reversing HIV latency using BAF complex modulating compounds” (priority 2018, dated 2024)
